Data: patent US20060223891A1, “Use of alverine, alone or in combination with a tricyclic antidepressant or an antidepressant which is a specific inhibitor of serotonin reuptake for treatment of depression” (CEREP, priority 2003, published 2006)
Values joined by “and” are separate entries in the source; they are usually repeats but may differ in a detail not shown here. Equal entries are not always repeated. “Also recorded” adds a separate entry of the source. Structures can show the parent of a compound that is named as a salt. Each block holds one molecule with its values, some of them ahead of it.

Experiments:
Assay type in all cases: in vivo
[1] = system: Swiss mice CD1; assay: forced swimming test, Alverine administered orally (Example 2); design: key to Dunnett test: * indicates a significant difference for p < 0.05 (Dunnett test); ns indicates an insignificant result; conditions: for immobility time, individual mice / immobility time, Average: 60 minutes prior to the test; for immobility time, Average: N = 10; for % of variation of immobility time: vs average of excipient group; for Dunnett test: vs excipient group
Description: Antidepressive Activity Test on Alverine administered orally on a batch of mice.
To establish the advantages according to the present invention a study, was carried out on a batch of 50 mice. They were divided into 5 groups of 10 mice each. These are Swiss mice CD1 (CD-1® (ICR) IGS (Charles River France) weighing between 25 and 35 g.
The substance to be tested is Alverine citrate (Sigma, in the form of dry powder, with a salt/base ratio of 1.68) comparatively to imipramine chlorhydrate (Sigma, in the form of dry powder, with a salt/base ratio of 1.13).
The fifth group is treated with imipramine (tricyclic antidepressant) at a dose of 30 mg/kg The doses are expressed in terms of free active substances. The substances are prepared extemporaneously in the excipient. […]
One hour following administration the five groups of mice are subjected to the forced swimming test, in a vertical Plexiglas cylinder (height 24 cm, diameter 9 cm) containing water (height 6 cm, temperature 18-22° C.). The total duration of immobility is measured over the last four minutes of the test, six minutes in total. A mouse is deemed immobile when it ceases struggling and floats in the water without movements superfluous to those allowing it to keep its head above water. A drop in immobility time is the reflection of an antidepressant effect.
The results are expressed in total duration of immobility in seconds and as a percentage of variation of the total duration of immobility calculated from the average value of the sample group.
The statistical significance between the treated groups and the sample group is determined by a Dunnett test using the residual variation according to analysis of the. variance (P<0.05). The data are analysed using <<SigmaStat>> software.

[2] = system: Swiss mice CD1; assay: forced swimming test, Alverine associated with imipramine, intraperitoneally (Example 3, test no. 1); design: key to Dunnett test: * indicates a significant difference for p < 0.05 (Dunnett test); ns indicates an insignificant result; conditions: for immobility time, individual mice / immobility time, Average / % of variation of immobility time / Dunnett test: intraperitoneally; for immobility time, individual mice / immobility time, Average: 30 minutes prior to the test; for immobility time, Average: n = 10; for % of variation of immobility time: vs average of excipient group; for Dunnett test: vs excipient group; for duration of immobilisation as compared to the sample group (in words): tested alone at 3 mg/kg
Description: (§1) The treatments are co-administered 30 minutes prior to the test in a coded and random order intraperitoneally with a volume of 10 ml/kg (5 ml/kg for each administration). Thirty minutes following administration the six groups of mice are subjected to the forced swimming test, in a vertical Plexiglas cylinder (height 24 cm, diameter 9 cm) containing water (height 6 cm, temperature 18-22° C.). The total duration of immobility is measured over the last four minutes of the test, six minutes in total. A mouse is deemed immobile when it ceases struggling and floats in the water without movements superfluous to those allowing it to keep its. head above water. A drop in immobility time is the reflection of an antidepressant effect. The results are expressed in total duration of immobility in seconds and as a percentage of variation of the total duration of immobility calculated from the average value of the sample group. The statistical significance between two treated groups is determined by using a Student test (P<0.05). The data are analysed using <<SigmaStat>> software.

[3] = system: Swiss mice CD1; assay: forced swimming test, Alverine associated with fluoxetine, intraperitoneally (Example 3, test no. 2); conditions: for immobility time, individual mice / immobility time, Average: 30 minutes prior to the test; for immobility time, Average: n = 10; for % of variation of immobility time: vs average of excipient group; for duration of immobilisation as compared to the sample group (in words): tested alone at 3 mg/kg
Description: as §1, with “Thirty minutes following administration the six groups of mice are subjected to the forced swimming test, in a vertical Plexiglas cylinder (height 24 cm, diameter 9 cm) containing water (height 6 cm, temperature 18-22° C.).” left out

[4] = system: Swiss mice CD1; assay: forced swimming test, Alverine administered intraperitoneally (Example 1); design: key to Dunnett test: * indicates a significant difference for p < 0.05 (Dunnett test); ns indicates an insignificant result; conditions: for immobility time, individual mice / immobility time, Average: 30 minutes prior to the test; for immobility time, Average: N = 10; for % of variation of immobility time: vs average of excipient group; for Dunnett test: vs excipient group
Description: Antidepressive Activity Test on Alverine administered intraperitoneally on a batch of mice. To establish the advantages according to the present invention a study was carried out on a batch of 50 mice. They were divided into 5 groups of 10 mice each. These are Swiss mice CD1 (CD-1®(ICR) IGS (Charles River France) weighing between 25 and 35 g. The substance to be tested is Alverine citrate (Sigma, in the form of dry powder, with a salt/base ratio of 1.68) comparatively to imipramine chlorhydrate (Sigma, in the form of dry powder, with a salt/base ratio of 1.13). The doses are expressed in terms of free active substances. The substances are prepared extemporaneously in the excipient. The treatments are administered 30 minutes prior to the test in a coded and random order intraperitoneally with a volume of 10 ml/kg. Thirty minutes following administration the five groups of mice are subjected to the forced swimming test, in a vertical Plexiglas cylinder (height 24 cm, diameter 9 cm) containing water (height 6 cm, temperature 18-22° C.). The total duration of immobility is measured over the last four minutes of the test, six minutes in total. A mouse is deemed immobile when it ceases struggling and floats in the water without movements superfluous to those allowing it to keep its head above water. A drop in immobility time is the reflection of an antidepressant effect. The results are expressed in total duration of immobility in seconds and as a percentage of variation of the total duration of immobility calculated from the average value of the sample group. The statistical significance between the treated groups and the sample group is determined by a Dunnett test using the residual variation according to analysis of the variance (P<0.05). The data are analysed using <<SigmaStat>> software. The results obtained are presented in the form of the following table, and in the form of a histogram, in FIG. 1.

[5] = 3 mg/kg alone, intraperitoneally
[6] = 10 mg/kg alone, intraperitoneally

secondary effect observed ([1]; mice treated orally, 10 to 100 mg/kg): no secondary effect was observed
SMILES: CCN(CCCc1ccccc1)CCCc1ccccc1 [Alverine citrate, N-ethyl-3,3′-diphenyldipropylamine]
immobility time, individual mice ([1]; 10 mg/kg orally): 95 s and 104 s and 111 s and 126 s and 108 s and 78 s and 115 s and 106 s and 113 s and 86 s
immobility time, Average ([1]; 10 mg/kg orally): 104.2 s
% of variation of immobility time ([1]; 10 mg/kg orally): −30%
Dunnett test ([1]; 10 mg/kg orally): ns
immobility time, individual mice ([1]; 30 mg/kg orally): 80 sec and 64 sec and 70 sec and 105 sec (3×) and 41 sec and 63 sec and 113 sec and 104 sec
immobility time, Average ([1]; 30 mg/kg orally): 85.0 s
% of variation of immobility time ([1]; 30 mg/kg orally): −43%
Dunnett test ([1]; 30 mg/kg orally): * (* indicates a significant difference for p < 0.05 (Dunnett test))
immobility time, individual mice ([1]; 100 mg/kg orally): 129 s and 67 s and 6 s and 105 s and 75 s and 81 s and 5 s and 37 s and 32 s and 52 s
immobility time, Average ([1]; 100 mg/kg orally): 58.9 s
% of variation of immobility time ([1]; 100 mg/kg orally): −60%
Dunnett test ([1]; 100 mg/kg orally): * (* indicates a significant difference for p < 0.05 (Dunnett test))
antidepressant effect (in words) ([1]; orally, 10 to 100 mg/kg, mice): significant antidepressant effect; also recorded: antidepressant effect proportional to the dose
immobility time, individual mice ([2]; 3 mg/kg alone): 108 s and 134 s and 113 s and 65 s and 85 s and 73 s and 79 s and 125 s and 95 s and 140 s
immobility time, Average ([2]; 3 mg/kg alone): 101.7 s
% of variation of immobility time ([2]; 3 mg/kg alone): −30%
Dunnett test ([2]; 3 mg/kg alone): ns
immobility time, individual mice ([2]; 10 mg/kg alone): 28 s and 10 s and 1 s and 74 s and 22 s and 70 s and 69 s and 67 s and 42 s and 57 s
immobility time, Average ([2]; 10 mg/kg alone): 44.0 s
% of variation of immobility time ([2]; 10 mg/kg alone): −70%
Dunnett test ([2]; 10 mg/kg alone): * (* indicates a significant difference for p < 0.05 (Dunnett test))
duration of immobilisation as compared to the sample group (in words) [2]: decrease, statistically insignificant
immobility time, individual mice [3, 5]: 119 sec and 138 sec and 117 sec (2×) and 110 sec and 73 sec and 47 sec and 124 sec and 72 sec and 32 sec
immobility time, Average [3, 5]: 94.9 s
% of variation of immobility time [3, 5]: −37%
immobility time, individual mice [3, 6]: 63 sec and 75 sec (2×) and 77 sec and 46 sec and 6 sec and 113 sec and 89 sec and 104 sec and 125 sec
immobility time, Average [3, 6]: 77.3 s
% of variation of immobility time [3, 6]: −49%
Dunnett test ([3]; 10 mg/kg alone, intraperitoneally, vs excipient group): * (* indicates a significant difference for p < 0.05 (Dunnett test))
duration of immobilisation as compared to the sample group (in words) [3]: decrease, statistically insignificant
immobility time, individual mice ([4]; 3 mg/kg intraperitoneally): 128 s and 82 s and 151 s and 132 s and 127 s and 88 s and 85 s and 99 s and 93 s and 118 s
immobility time, Average ([4]; 3 mg/kg intraperitoneally): 110.3 s
% of variation of immobility time ([4]; 3 mg/kg intraperitoneally): −15%
Dunnett test ([4]; 3 mg/kg intraperitoneally): ns
immobility time, individual mice ([4]; 10 mg/kg intraperitoneally): 29 s and 86 s and 28 s and 30 s and 90 s and 99 s and 65 s and 129 s and 57 s and 3 s
immobility time, Average ([4]; 10 mg/kg intraperitoneally): 61.6 s
% of variation of immobility time ([4]; 10 mg/kg intraperitoneally): −53%
Dunnett test ([4]; 10 mg/kg intraperitoneally): * (* indicates a significant difference for p < 0.05 (Dunnett test))
immobility time, individual mice ([4]; 30 mg/kg intraperitoneally): 97 sec and 3 sec and 66 sec and 36 sec and 0 sec and 15 sec and 7 sec (2×) and 16 sec and 12 sec
immobility time, Average ([4]; 30 mg/kg intraperitoneally): 25.9 s
% of variation of immobility time ([4]; 30 mg/kg intraperitoneally): −80%
Dunnett test ([4]; 30 mg/kg intraperitoneally): * (* indicates a significant difference for p < 0.05 (Dunnett test))
antidepressant effect (in words) ([4]; injected intraperitoneally, 3 to 30 mg/kg, mice): antidepressant effect proportional to the dose; also recorded: significant antidepressant effect

SMILES: CNCCC(Oc1ccc(C(F)(F)F)cc1)c1ccccc1 (stereo not shown) [Fluoxetine, fluoxetine]
duration of immobilisation as compared to the sample group (in words) [3]: decrease, statistically insignificant

SMILES: CN(C)CCCN1c2ccccc2CCc2ccccc21 [Imipramine, imipramine]
duration of immobilisation as compared to the sample group (in words) [2]: decrease, statistically insignificant
